“Also recorded” adds a separate entry of the source. Structures can show the parent of a compound that is named as a salt. Where two headings read alike, the source gives them in different places.
Key:
[1] = Exposure of coated ureteral stent to water / aqueous environment (photomicrographs of coating); type: physicochemical
From the text: (§1) An approximately 0.6% solution of bupivacaine having a tertiary amine in the non-ionic form (formula (2a) above) in dichloromethane was loaded into a syringe mounted onto a syringe pump and connected to a tube that carried the solution to an ultrasonic nozzle (Model 06-05108—Sono-Tek Co., Poughkeepsie, N.Y. 12547.) A nozzle was 6 mm diameter, 11 mm long and used with a nominal frequency of 120 kHz. Air was purged from the solution line and the spray nozzle primed with the solution. The coating chamber was purged with nitrogen to attain an oxygen concentration below 100 ppm. The solution was sprayed onto ureteral stent substrates 20 to 280 mm long (polyurethane double pigtail soflex ureteral stent, Cook Incorporated (Bloomington, Ind.)). A smooth, uniform coating was observed. Control stents were coated with the same concentration of Bupivacaine.HCl using the above coating method.
(§2) FIGS. 4-7 depict photomicrographs of the coatings showing the uniformity and tenacity of the non-ionic coatings, in contrast to the water-soluble ionic coatings. […] FIG. 5 depicts a relatively rough, crystalline coating 91 of Bupivacaine.HCl on a ureteral stent 90, on the left, and the same stent after a one-minute ex vivo exposure to a pig ureter.
(§3) FIG. 7 then depicts the same type of stent 110 with a coating 114 of the non-ionic form of bupivacaine after 24 hours in an ex vivo test with a pig ureter.

[2] = Ex vivo exposure of coated ureteral stent to a pig ureter
From the text: as §1, §2, §3

[3] = cited from earlier work
[4] = Elution of bupivacaine from spray-coated ureteral stents in aqueous buffers of different pH; type: physicochemical
From the text: as §1
The stents were placed in solutions at different pH values to test the elution of bupivacaine over time. […] Acetic acid/sodium acetate was used for the pH 4.5 buffer, 0.1 M phosphate-buffered solution (PBS) for the pH 7.0 buffer, and sodium carbonate for the pH 9.5 buffer.

[5] = Table 1, anesthetics having protonated and unprotonated forms; cited from earlier work

| state of stent coating after dipping in water ([1]; dipped in water for one minute (FIG. 4)) | state of stent coating after exposure to aqueous environment ([1]; aqueous environment for several days (FIG. 6)) | period over which release from ureteral stent occurs ([4]; coated polyurethane ureteral stent, solutions of pH 4.5, 7.0 and 9.5) | dependence of release rate on pH of the eluting solution ([4]; pH 4.5, 7.0, 9.5) | Compound | state of stent coating after ex vivo exposure to pig ureter ([2]; one-minute ex vivo exposure (FIG. 5)) | solubility in water (words) ([3]; hydrochloride) | solubility in water (words) ([3]; listed as bupivacaine hydrochloride, hydrochloride) | time of release/elution from coated stent ([4]; control stents coated with ionic form, aqueous solutions, same conditions, hydrochloride) | state of stent coating after ex vivo test with pig ureter ([2]; 24 hours ex vivo (FIG. 7)) | solubility ([3]; base or non-ionic form) | solubility in water (words) [3] | solubility in water (words) ([3]; listed as Bupivacaine) | pKa [5] |
| --- | --- | --- | --- | --- | --- | --- | --- | --- | --- | --- | --- | --- | --- |
| coating is substantially dissolved |  |  |  | CCCCN1CCCCC1C(=O)Nc1c(C)cccc1C (centres unmarked) [Bupivacaine.HCl, 1-butyl-N-(2,6-dimethylphenyl)-2-piperidinecarboxamide hydrochloride] | Most of the coating 92 has been dissolved | water-soluble | soluble in water | within a matter of minutes; also recorded: eluted fully within minutes |  |  |  |  |  |
|  | virtually no effect on the coating | about 12 days | approximately the same rate | CCCCN1CCCCC1C(=O)Nc1c(C)cccc1C (centres unmarked) [bupivacaine] |  |  |  |  | most of the non-ionic form of the bupivacaine coating remains on the stent | about 0.2 mg/mL | only very slightly soluble in water | sparingly soluble in water | 8.09 |
|  |  |  |  | CCCN1CCCC[C@H]1C(=O)Nc1c(C)cccc1C [ropivacaine] |  |  |  |  |  |  |  |  | 8.16 |
